From ChEMBL document CHEMBL5150060 (J Med Chem, 2022)
Activity calls are given as the source filed them. The rule behind the calls is not given here.

How the values were obtained:
Histone deacetylase 4 = Histone deacetylase 4 (Homo sapiens, UniProt P56524); experiment: Inhibition of HDAC4 (unknown origin)
[1] = Stability of compound in DMEM/DMSO/acetonitrile at pH 7.4 measured after 12 hrs by HPLC analysis; type: physicochemical; conditions: read-out: Stability
Histone deacetylase 11 = target: T1, Histone deacetylase 11 (Homo sapiens, UniProt Q96DB2); experiment: Inhibition of recombinant human HDAC11 preincubated for 10 mins followed by substrate addition by fluorescence based analysis
T1 sequence (Q96DB2 whole entry): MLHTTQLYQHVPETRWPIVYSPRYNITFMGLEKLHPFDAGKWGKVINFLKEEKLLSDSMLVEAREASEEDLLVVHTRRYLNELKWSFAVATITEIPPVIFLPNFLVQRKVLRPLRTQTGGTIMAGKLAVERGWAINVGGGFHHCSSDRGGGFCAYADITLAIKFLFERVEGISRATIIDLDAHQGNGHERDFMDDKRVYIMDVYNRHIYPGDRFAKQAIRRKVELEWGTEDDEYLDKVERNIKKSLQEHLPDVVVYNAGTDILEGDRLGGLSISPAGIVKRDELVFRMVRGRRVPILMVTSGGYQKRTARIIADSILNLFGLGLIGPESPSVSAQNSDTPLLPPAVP

Histone deacetylase 8 [2] = target: T2, Histone deacetylase 8 (Homo sapiens, UniProt Q9BY41); experiment: Inhibition of recombinant human HDAC8 using (Abz-SRGK(thio-TFA)FFRR-NH2) as substrate preincubated for 5 mins followed by substrate addition by fluorescence based analysis
T2 sequence (Q9BY41 whole entry): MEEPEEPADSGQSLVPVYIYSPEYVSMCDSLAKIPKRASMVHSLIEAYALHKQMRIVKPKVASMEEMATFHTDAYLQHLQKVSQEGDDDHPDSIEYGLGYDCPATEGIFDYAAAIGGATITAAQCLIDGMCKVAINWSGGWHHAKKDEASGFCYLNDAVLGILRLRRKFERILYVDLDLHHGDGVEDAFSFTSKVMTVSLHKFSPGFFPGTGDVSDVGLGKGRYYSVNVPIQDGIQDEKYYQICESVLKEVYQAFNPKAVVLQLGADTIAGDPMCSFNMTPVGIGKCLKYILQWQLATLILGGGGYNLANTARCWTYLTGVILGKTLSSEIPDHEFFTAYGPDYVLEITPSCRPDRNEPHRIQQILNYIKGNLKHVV

[3] = Stability of compound in DMEM/DMSO/acetonitrile at pH 7.4 measured after 48 hrs by HPLC analysis; type: physicochemical; conditions: read-out: Stability
[4] = Stability of compound in DMEM/DMSO/acetonitrile at pH 7.4 measured after 6 hrs by HPLC analysis; type: physicochemical; conditions: read-out: Stability
[5] = Stability of compound in DMEM/DMSO/acetonitrile at pH 7.4 measured after 24 hrs by HPLC analysis; type: physicochemical; conditions: read-out: Stability
Histone deacetylase 2 [6] = target: T3, Histone deacetylase 2 (Homo sapiens, UniProt Q92769); experiment: Inhibition of recombinant human HDAC2 using p53 (Ac-RHKK(Acetyl)-AMC) as substrate preincubated for 5 mins followed by substrate addition and measured after 30 mins by fluorescence based analysis
Histone deacetylase 1 [7] = target: T4, Histone deacetylase 1 (Homo sapiens, UniProt Q13547); experiment: Inhibition of recombinant human HDAC1 using p53 (Ac-RHKK(Acetyl)-AMC) as substrate preincubated for 5 mins followed by substrate addition and measured after 90 mins by fluorescence based analysis
HEK293 [8] = experiment: Cytotoxicity against HEK293 cells assessed as reduction in cell viability at 50 uM after 24 hrs by alamar blue assay; type: toxicity, cell-based; conditions: human, hek293, 24 h
Histone deacetylase 3 [9] = target: T5, Histone deacetylase 3 (Homo sapiens, UniProt O15379); experiment: Inhibition of recombinant human HDAC3 using p53 (Ac-RHKK(Acetyl)-AMC) as substrate preincubated for 5 mins followed by substrate addition and measured after 30 mins by fluorescence based analysis
[10] = target: T6, Protein deacetylase HDAC6 (Homo sapiens, UniProt Q9UBN7); experiment: Inhibition of recombinant human HDAC6 (unknown origin)
T6 sequence (Q9UBN7 whole entry): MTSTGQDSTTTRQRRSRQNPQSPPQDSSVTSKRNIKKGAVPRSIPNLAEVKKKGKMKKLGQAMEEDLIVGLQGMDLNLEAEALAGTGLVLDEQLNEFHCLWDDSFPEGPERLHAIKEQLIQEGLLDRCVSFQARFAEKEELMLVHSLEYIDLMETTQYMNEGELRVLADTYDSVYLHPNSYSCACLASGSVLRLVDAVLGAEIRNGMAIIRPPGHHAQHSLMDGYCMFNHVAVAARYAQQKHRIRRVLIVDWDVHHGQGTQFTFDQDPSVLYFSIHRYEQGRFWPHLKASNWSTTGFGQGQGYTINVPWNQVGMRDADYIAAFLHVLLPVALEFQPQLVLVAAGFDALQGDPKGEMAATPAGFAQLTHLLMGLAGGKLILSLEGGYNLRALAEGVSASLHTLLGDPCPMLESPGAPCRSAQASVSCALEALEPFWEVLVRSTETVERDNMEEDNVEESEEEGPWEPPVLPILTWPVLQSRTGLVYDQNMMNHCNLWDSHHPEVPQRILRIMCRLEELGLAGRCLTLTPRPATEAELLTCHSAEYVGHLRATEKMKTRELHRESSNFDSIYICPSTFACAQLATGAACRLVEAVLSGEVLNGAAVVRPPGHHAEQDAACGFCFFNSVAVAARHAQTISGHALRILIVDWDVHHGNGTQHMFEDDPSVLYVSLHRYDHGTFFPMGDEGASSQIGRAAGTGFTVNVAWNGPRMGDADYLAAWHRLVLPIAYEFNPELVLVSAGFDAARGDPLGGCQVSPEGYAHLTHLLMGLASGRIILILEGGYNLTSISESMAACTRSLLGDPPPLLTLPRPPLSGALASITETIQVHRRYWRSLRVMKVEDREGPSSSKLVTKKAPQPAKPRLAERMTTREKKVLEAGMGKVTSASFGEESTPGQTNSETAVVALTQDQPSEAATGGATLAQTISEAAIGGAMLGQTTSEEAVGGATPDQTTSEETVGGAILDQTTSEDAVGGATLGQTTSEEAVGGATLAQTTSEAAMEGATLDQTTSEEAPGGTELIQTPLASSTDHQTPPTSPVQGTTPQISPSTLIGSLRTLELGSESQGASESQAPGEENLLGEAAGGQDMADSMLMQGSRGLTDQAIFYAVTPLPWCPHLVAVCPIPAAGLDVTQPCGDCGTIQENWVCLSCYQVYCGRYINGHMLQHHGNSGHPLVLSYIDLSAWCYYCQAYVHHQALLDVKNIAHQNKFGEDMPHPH

[11] = Stability of compound in DMEM/DMSO/acetonitrile at pH 7.4 measured after 72 hrs by HPLC analysis; type: physicochemical; conditions: read-out: Stability
[12] = target: T7, Histone deacetylase 8 (Homo sapiens) (UniProt Q9BY41); experiment: Reversible binding affinity to recombinant human HDAC8 incubated for 30 mins by jump dilution method
T7 sequence (whole entry): T2 sequence (Q9BY41 whole entry)

Histone deacetylase 8 [13] = target: T2, Histone deacetylase 8; experiment: Competitive inhibition of human HDAC8 using Abz-SRGGK(STFA)FFRR-NH2 (S) as substrate by Lineweaver-burk plot analysis
[14] = target: T7, Histone deacetylase 8 (Homo sapiens); experiment: Inhibition of HDAC8 in human Jurkat T cells assessed as increase in H3K27 acetylation at 10 uM after 6 hrs by Western blot analysis; type: cell-based
HEK293 [15] = experiment: Cytotoxicity against HEK293 cells assessed as reduction in cell viability after 24 hrs by alamar blue assay; type: functional, cell-based; conditions: Homo sapiens, HEK293, 24 h
[16] = target: T7, Histone deacetylase 8 (Homo sapiens); experiment: Inhibition of recombinant human HDAC8 at 10 uM using (Abz-SRGK(thio-TFA)FFRR-NH2) as substrate preincubated for 5 mins followed by substrate addition by fluorescence based analysis relative to control
Histone deacetylase 2 [17] = target: T3, Histone deacetylase 2; experiment: Inhibition of recombinant human HDAC2 at 1 uM using p53 (Ac-RHKK(Acetyl)-AMC) as substrate preincubated for 5 mins followed by substrate addition and measured after 30 mins by fluorescence based analysis relative to control; conditions: time 35.0 min
Histone deacetylase 3 [18] = target: T5, Histone deacetylase 3; experiment: Inhibition of recombinant human HDAC3 at 1 uM using p53 (Ac-RHKK(Acetyl)-AMC) as substrate preincubated for 5 mins followed by substrate addition and measured after 30 mins by fluorescence based analysis relative to control; conditions: time 35.0 min
Histone deacetylase 1 [19] = target: T4, Histone deacetylase 1; experiment: Inhibition of recombinant human HDAC1 at 10 uM using p53 (Ac-RHKK(Acetyl)-AMC) as substrate preincubated for 5 mins followed by substrate addition and measured after 90 mins by fluorescence based analysis relative to control; conditions: time 95.0 min
Histone deacetylase 1 [20] = target: T4, Histone deacetylase 1; experiment: Inhibition of recombinant human HDAC1 at 1 uM using p53 (Ac-RHKK(Acetyl)-AMC) as substrate preincubated for 5 mins followed by substrate addition and measured after 90 mins by fluorescence based analysis relative to control; conditions: time 95.0 min
[21] = target: T7, Histone deacetylase 8 (Homo sapiens); experiment: Inhibition of recombinant human HDAC8 at 1 uM using (Abz-SRGK(thio-TFA)FFRR-NH2) as substrate preincubated for 5 mins followed by substrate addition by fluorescence based analysis relative to control
Histone deacetylase 2 [22] = target: T3, Histone deacetylase 2; experiment: Inhibition of recombinant human HDAC2 at 10 uM using p53 (Ac-RHKK(Acetyl)-AMC) as substrate preincubated for 5 mins followed by substrate addition and measured after 30 mins by fluorescence based analysis relative to control; conditions: time 35.0 min
Histone deacetylase 3 [23] = target: T5, Histone deacetylase 3; experiment: Inhibition of recombinant human HDAC3 at 10 uM using p53 (Ac-RHKK(Acetyl)-AMC) as substrate preincubated for 5 mins followed by substrate addition and measured after 30 mins by fluorescence based analysis relative to control; conditions: time 35.0 min

T4 sequence (Q13547 whole entry): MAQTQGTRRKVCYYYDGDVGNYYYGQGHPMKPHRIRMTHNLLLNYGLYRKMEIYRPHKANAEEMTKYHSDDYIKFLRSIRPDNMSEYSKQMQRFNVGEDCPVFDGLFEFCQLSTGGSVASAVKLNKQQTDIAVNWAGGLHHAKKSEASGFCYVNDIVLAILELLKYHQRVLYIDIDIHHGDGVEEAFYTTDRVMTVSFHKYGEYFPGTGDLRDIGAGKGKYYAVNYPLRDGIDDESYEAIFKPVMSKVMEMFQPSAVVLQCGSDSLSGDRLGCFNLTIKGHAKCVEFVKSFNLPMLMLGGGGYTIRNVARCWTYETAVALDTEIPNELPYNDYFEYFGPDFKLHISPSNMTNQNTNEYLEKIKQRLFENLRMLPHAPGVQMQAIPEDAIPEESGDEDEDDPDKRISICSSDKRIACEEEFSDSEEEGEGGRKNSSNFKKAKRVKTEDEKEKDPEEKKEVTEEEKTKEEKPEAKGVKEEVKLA
T3 sequence (Q92769 whole entry): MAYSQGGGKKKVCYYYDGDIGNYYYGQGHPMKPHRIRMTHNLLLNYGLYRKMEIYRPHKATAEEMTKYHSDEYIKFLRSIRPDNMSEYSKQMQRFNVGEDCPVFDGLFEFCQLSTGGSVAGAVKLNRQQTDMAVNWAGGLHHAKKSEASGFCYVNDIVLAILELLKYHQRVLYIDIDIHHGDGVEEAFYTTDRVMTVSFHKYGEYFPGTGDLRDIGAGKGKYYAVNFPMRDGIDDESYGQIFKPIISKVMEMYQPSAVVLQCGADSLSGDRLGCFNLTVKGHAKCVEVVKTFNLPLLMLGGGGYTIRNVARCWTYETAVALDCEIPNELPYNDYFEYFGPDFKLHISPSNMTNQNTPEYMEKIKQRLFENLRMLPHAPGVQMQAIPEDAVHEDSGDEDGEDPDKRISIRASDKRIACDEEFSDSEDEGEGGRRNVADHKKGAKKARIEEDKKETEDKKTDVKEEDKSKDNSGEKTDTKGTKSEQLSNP
T5 sequence (O15379 whole entry): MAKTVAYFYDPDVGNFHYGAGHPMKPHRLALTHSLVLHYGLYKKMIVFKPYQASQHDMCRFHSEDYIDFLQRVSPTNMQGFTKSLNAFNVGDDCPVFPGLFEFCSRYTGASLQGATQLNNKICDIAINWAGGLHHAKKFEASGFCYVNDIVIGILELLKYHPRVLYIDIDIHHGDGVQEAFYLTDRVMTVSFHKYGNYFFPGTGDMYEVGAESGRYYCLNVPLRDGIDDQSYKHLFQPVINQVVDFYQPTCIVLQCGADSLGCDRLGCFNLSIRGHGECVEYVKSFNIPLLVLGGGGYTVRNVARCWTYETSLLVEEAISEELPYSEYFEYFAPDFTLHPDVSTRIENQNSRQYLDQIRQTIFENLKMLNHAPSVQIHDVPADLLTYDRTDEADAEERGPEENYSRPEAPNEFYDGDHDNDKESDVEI
Histone deacetylase 4, sequence (P56524 whole entry): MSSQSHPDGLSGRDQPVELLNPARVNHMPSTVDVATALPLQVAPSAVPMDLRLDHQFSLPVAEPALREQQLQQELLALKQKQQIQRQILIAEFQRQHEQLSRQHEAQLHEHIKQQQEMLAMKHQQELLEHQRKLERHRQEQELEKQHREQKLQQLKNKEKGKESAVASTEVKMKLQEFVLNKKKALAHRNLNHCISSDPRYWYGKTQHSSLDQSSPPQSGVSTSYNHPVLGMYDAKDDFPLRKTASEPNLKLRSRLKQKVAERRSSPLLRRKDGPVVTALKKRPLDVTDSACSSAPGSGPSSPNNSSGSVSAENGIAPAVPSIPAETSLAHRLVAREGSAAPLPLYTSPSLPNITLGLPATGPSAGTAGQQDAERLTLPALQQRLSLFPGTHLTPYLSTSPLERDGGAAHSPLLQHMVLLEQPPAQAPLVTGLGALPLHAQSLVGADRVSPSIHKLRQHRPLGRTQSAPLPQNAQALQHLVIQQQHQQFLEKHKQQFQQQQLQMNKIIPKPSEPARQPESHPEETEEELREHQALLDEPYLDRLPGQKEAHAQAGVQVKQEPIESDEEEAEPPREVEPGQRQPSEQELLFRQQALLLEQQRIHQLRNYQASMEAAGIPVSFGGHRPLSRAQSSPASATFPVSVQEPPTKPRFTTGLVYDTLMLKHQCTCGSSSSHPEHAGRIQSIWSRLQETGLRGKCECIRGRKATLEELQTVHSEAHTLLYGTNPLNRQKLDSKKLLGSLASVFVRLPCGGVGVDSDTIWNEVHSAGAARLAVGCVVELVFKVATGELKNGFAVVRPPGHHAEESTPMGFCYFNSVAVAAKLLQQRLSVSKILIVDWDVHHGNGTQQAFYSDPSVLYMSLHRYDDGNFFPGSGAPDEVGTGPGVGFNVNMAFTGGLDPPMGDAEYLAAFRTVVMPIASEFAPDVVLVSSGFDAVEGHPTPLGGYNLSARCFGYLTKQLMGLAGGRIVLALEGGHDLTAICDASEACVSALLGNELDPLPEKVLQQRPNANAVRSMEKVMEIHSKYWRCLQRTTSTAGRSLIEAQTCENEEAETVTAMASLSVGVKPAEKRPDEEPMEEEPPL

| IC50 (Histone deacetylase 4) [µM] | IC50 (Histone deacetylase 11) [µM] | IC50 (Histone deacetylase 8 [2]) [µM] | IC50 (Histone deacetylase 2 [6]) [µM] | IC50 (Histone deacetylase 1 [7]) [µM] | IC50 (Histone deacetylase 3 [9]) [µM] | IC50 [10] [µM] | Structure (SMILES) | Cell viability (HEK293 [8]) [%] | further results |
| --- | --- | --- | --- | --- | --- | --- | --- | --- | --- |
| 0.99 | 1.8 | 0.7 | 0.63 | 1.6 | 0.091 | > 20 | CCCNNC(=O)c1ccc(-c2ccc(CNC(C)=O)cc2)cc1 | 83.9 | remaining at 12 h [1]: 97.3%; remaining at 48 h [3]: 90.4%; remaining at 6 h [4]: 98.3%; remaining at 24 h [5]: 94.9%; remaining at 72 h [11]: 86.8% |
| > 20 | 8.6 | 0.046 | > 20 | > 20 | > 20 | > 20 | CCCCCCNNC(=O)c1cccc(NCc2ccccc2)c1 | 71.2 |  |
| > 20 | 0.57 | 0.0082 | 1.1 | 0.073 | 0.03 | > 20 | CCCNNC(=O)c1cnc(N2CCN(Cc3c[nH]c4ccccc34)CC2)nc1 | 47 | remaining at 12 h [1]: 83.3%; Activity [12]: Active; remaining at 48 h [3]: 27.1%; remaining at 6 h [4]: 81.7%; Ki (Histone deacetylase 8 [13]): 0.0055 µM; remaining at 24 h [5]: 82.9%; inhibition [14]: Active; remaining at 72 h [11]: 31.1% |
| > 20 | 0.041 | 0.0059 | 0.31 | 0.17 | 0.1 | > 20 | CCCCCCNNC(=O)c1cnc(N2CCN(Cc3c[nH]c4ccccc34)CC2)nc1 | 2.18 | inhibition [14]: Active |
| > 20 | 2 | 1 | 0.7 | 0.25 | 0.0432 | > 20 | CCCNNC(=O)c1cnc(NCc2ccccc2)nc1 | 80.9 |  |

The remaining lines, values behind:

| Structure (SMILES) | IC50 (Histone deacetylase 4) [µM] | IC50 (Histone deacetylase 11) [µM] | IC50 (Histone deacetylase 8 [2]) [µM] | IC50 (Histone deacetylase 2 [6]) [µM] | IC50 (Histone deacetylase 1 [7]) [µM] | IC50 (Histone deacetylase 3 [9]) [µM] | IC50 [10] [µM] | Cell viability (HEK293 [8]) [%] | further results |
| --- | --- | --- | --- | --- | --- | --- | --- | --- | --- |
| COc1cccc2c1C(=O)c1c(O)c3c(c(O)c1C2=O)C[C@@](O)(C(C)=O)C[C@@H]3O[C@H]1C[C@H](N)[C@H](O)[C@H](C)O1 [DAUNORUBICIN] |  |  |  |  |  |  |  |  | IC50 (HEK293 [15]): 1.2 µM |
| CCCNNC(=O)c1cnc(NCCc2ccccc2)nc1 |  |  |  |  |  |  |  | 80.5 | inhibition [16]: 89%; inhibition (Histone deacetylase 2 [17]): 39%; inhibition (Histone deacetylase 3 [18]): 41%; inhibition (Histone deacetylase 1 [19]): 85%; inhibition (Histone deacetylase 1 [20]): 51%; inhibition [21]: 51%; inhibition (Histone deacetylase 2 [22]): 90%; inhibition (Histone deacetylase 3 [23]): 87% |
| CCCCCCNNC(=O)c1ccc(C)c(NCc2ccccc2)c1 |  |  |  |  |  |  |  | 41.7 | inhibition [16]: 100%; inhibition (Histone deacetylase 2 [17]): 5%; inhibition (Histone deacetylase 3 [18]): 9%; inhibition (Histone deacetylase 1 [19]): 35%; inhibition (Histone deacetylase 1 [20]): 9%; inhibition [21]: 2%; inhibition (Histone deacetylase 2 [22]): 26%; inhibition (Histone deacetylase 3 [23]): 42% |
